Test results published in patent US20250205204A1, “Transcription Factor Brn2 Inhibitory Compounds for Use as Therapeutics” (The University of British Columbia, priority 2021, published 2025).
Read-outs that look alike come from different tables or passages of the source.

What was measured:
[1] = system: 42D^ENZR cells; test: Cell proliferation, BRN2 expressing 42D cells (crystal violet); assay type: cell-based; conditions: for Growth Specificity: 42D (express BRN2) versus 16D (no BRN2) cells, result in words
Description: Step 3: Cell Proliferation
Plate 42DE^NZR (˜7000 cells per well) and 16D^CRPC (˜5000 cells per well) cells in 96 well plate with a volume of 100 μL per well. • 2. Next day 1 mL aliquots of media are combined with 3× the desired concentration of compounds. The aliquots are vortexed and 50 μL of each 3× concentration is added to the 100 μL of media in each well to give the ix desired concentration.
The following are the desired concentrations:
Approximately 72 hours later, 17 μL of 10% Glutaraldehyde is added to each well and plates are placed on a shaker for 20-30 minutes. • 4. Media is washed off the fixed cells by slow submersion in a container of water. Then the water is removed by tapping the plate upside down. • 5. 75 μL of Crystal Violet™ solution is added into the 96 well plates and placed on a shaker for ˜30 minutes. • 6. Media is washed off the fixed cells by repeated slow submersion in a container of water and the plates are allowed to dry over-night. • 7. Next day, 75 μL of Sorensen Solution is accurately pipetted into each well. The plates placed on a shaker for ˜30 minutes. • 8. Absorbance is measured in the plate at 590 nm.
There is a distinction in TABLES 1 and 2 difference between “Active” and “Specific” or “Specificity”.

[2] = Metabolic stability in liver microsomes (MLM); assay type: in vitro ADME, mice; conditions: 0.25 mg/mL protein; for half-life at 1 μM: mouse, liver microsomes, pH 7.4, 1 μM compound, read-out: T1/2 in mins (MLM); for Met Stab % (60 mins) MLM: percent remaining at 60 min, 1 μM compound, 1 mM NADPH
Description: Preparation of Potassium Phosphate Buffer, 50 mM (pH 7.4)
Potassium phosphate buffer (Kphos) was prepared by adding 0.647 g potassium phosphate monobasic (KH2PO4) and 3.527 g potassium phosphate dibasic (KH2PO4) to 400 mL of Milli-Q™ water. pH of the buffer was adjusted to 7.4 and volume was made up to 500 mL.
Preparation of Microsomes
Stock solutions of BRN2 inhibitors were prepared in DMSO at a concentration of 1 mM
Preparation of NADPH Solution
• Total Incubation volume: 100 μL • Compound concentration: 1 μM • Protein Concentration: 0.25 mg/mL • NADPH: 1 mM • Final DMSO contain: 0.1% • Number of replicates: 2 • Time points: 0, 5, 15, 30 and 60 min
From the above mix, 70 μL was added to individual wells of 96 well reaction plates and pre-incubated in a 37° C. water bath for 5 min. […] Reactions without NADPH and buffer controls (minus NADPH) at 0 min and 60 min were also incubated to rule out non-NADPH metabolism or chemical instability in the incubation buffer. All reactions were terminated using 100 μL of ice-cold acetonitrile containing internal standard at 0, 5, 15, 30 and 60 min.
Samples were monitored for parent compounds disappearance in MRM mode using LC-MS/MS.
The percent remaining of test compounds and positive control in each sample was determined by considering peak area ratio in the 0 minute sample as 100%. The Half-life of compounds in microsomes is calculated by formula: […]
In vitro intrinsic clearance (CL'int) (units in mL/min/kg) was calculated using the formula.
[formula] • For liver microsomes, scaling factor used was 45 mg microsomal protein per gm liver. • * Indicates liver weight (gm) which varies species wise. For mice the liver weights are 90 gm.

[3] = target: T1, BRN2 (Homo sapiens, UniProt P20265); test: BLI binding; conditions: result in words
T1 sequence (P20265 1-443): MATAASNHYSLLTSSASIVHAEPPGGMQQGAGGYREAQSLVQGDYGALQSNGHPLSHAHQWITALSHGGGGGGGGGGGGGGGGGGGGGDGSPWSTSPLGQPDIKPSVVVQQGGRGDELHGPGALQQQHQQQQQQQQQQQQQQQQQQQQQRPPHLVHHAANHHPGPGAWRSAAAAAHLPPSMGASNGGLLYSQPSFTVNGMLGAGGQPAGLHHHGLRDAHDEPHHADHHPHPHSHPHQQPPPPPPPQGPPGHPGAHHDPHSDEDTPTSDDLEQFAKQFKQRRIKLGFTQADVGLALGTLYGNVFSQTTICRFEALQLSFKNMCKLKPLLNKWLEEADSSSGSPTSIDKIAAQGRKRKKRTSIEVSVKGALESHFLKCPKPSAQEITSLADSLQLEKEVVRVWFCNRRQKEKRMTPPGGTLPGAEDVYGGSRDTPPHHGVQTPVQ

[4] = 42D cells, proliferation, about 72 hours, read-out: 42D IC50

Row | SMILES | Growth Specificity ([1]; about 72 hours) | IC50 ([1]; read-out: IC50 (effective on both 42D and 16D cells)) | half-life at 1 μM [2] | Met Stab % (60 mins) MLM [2] | BLI binding [3] | IC50 [1, 4]
1 | O=C1C/C(=N/Nc2nc3ccccc3s2)c2ccccc21 [7-52] | effective on both 42D and 16D cells | 3 to 7 µM | 23 min | 9% | Positive | 
2 | O=C1/C(=N\Nc2nc3ccccc3s2)Cc2cc(F)ccc21 [7-70, (Z)-2-(2-(benzo[d]thiazol-2-yl)hydrazineylidene)-5-fluoro-2,3-dihydro-1H-inden-1-one] | Specific to 42D |  | 50 min | 38% | Positive binding | ~5 µM
3 | O=C1/C(=N\Nc2nc3ccccc3s2)Cc2cc(Cl)ccc21 [7-71, (Z)-2-(2-(benzo[d]thiazol-2-yl)hydrazineylidene)-5-chloro-2,3-dihydro-1H-inden-1-one] | Specific to 42D but weak |  | 47 min | 35% | Positive binding | ~15 µM
4 | O=C1/C(=N\Nc2nc3ccccc3s2)Cc2ccc(F)cc21 [7-81, (Z)-2-(2-(benzo[d]thiazol-2-yl)hydrazineylidene)-6-fluoro-2,3-dihydro-1H-inden-1-one] | Specific to 42D |  | 22 min | 26% | Positive binding | 
5 | O=C(O)c1csc(N/N=C2/Cc3ccccc3C2=O)n1 [7-87] | Not specific |  | > 60 min | 98% |  | 
6 | O=C(O)c1cnc(N/N=C2/Cc3ccccc3C2=O)s1 [7-88] | Not specific |  | > 60 min | 94% |  | 
7 | O=C1/C(=N\Nc2nc3ccccc3s2)CCc2ccccc21 [7-89] | Not specific |  | 11 min | 2% |  | 
8 | O=C1/C(=N\Nc2nc3ccccc3s2)Oc2ccccc21 [7-90] | Not specific |  | 13 min | 4% | no binding | 
9 | O=C1/C(=N\Nc2nc3ccccc3s2)Cc2c1cccc2C(F)(F)F [7-91] | Specific to 42D |  | > 60 min | 67% | Positive binding | ~2 µM
10 | N#Cc1ccc2c(c1)C(=O)/C(=N\Nc1nc3ccccc3s1)C2 [7-92] | Specific but weak |  | 48 min | 41% | Positive binding | ~15 µM
11 | N#Cc1ccc2c(c1)C/C(=N/Nc1nc3ccccc3s1)C2=O [7-93] | Specific but weak |  | 44 min | 39% | no binding | ~15 µM
12 | O=C1/C(=N\Nc2nc3ccccc3s2)Cc2cc(Br)ccc21 [7-94] | Specific to 42D |  | > 60 min | 50% | Positive binding | ~2 µM
13 | O=C1/C(=N\Nc2nc3ccccc3s2)Nc2ccccc21 [7-95] | Specific but weak |  | > 60 min | 69% | Positive binding | ~15 µM
14 | Cc1ccc2c(c1)C/C(=N/Nc1nc3ccccc3s1)C2=O [7-96] | Specific but weak |  | 31 min | 22% | inconclusive, needs to be repeated | ~15 µM
15 | O=C1/C(=N\Nc2nc3ccccc3s2)Cc2cc(F)c(F)cc21 [7-97] | Specific to 42D |  | > 60 min | 69% | Positive binding | ~2 µM
16 | O=C1/C(=N\Nc2nc3ccccc3s2)Cc2cc(-c3ccccc3)ccc21 [7-98] | Specific to 42D |  | 33 min | 26% |  | ~2 µM
17 | COc1ccc2c(c1)C/C(=N/Nc1nc3ccccc3s1)C2=O [7-99] | Potent but effective on both 42D and 16D cells |  | 15 min | 6% |  | 
18 | O=C1/C(=N\Nc2nc3ccccc3s2)Cc2cc(F)c(Cl)cc21 [7-100] | Specific to 42D |  | 38 min | 30% | Positive binding | ~2 µM
19 | O=C1/C(=N\Nc2nc3ccccc3s2)Cc2c1ccc(F)c2F [7-101] | Specific to 42D cells |  | > 60 min | 67% | Positive binding | 1 to 2.5 µM
20 | O=C1/C(=N\Nc2nc3ccccc3s2)Cc2cc(F)cc(F)c21 [7-102] | Specific to 42D cells |  | 56 min | 46% | Positive binding but not strong | ~2.5 µM
21 | O=C1/C(=N\Nc2nc3ccccc3s2)Cc2cc(N3CCOCC3)ccc21 [7-103] | Not specific |  | 44 min | 42% | No binding | 
22 | CCc1ccc2c(c1)C/C(=N/Nc1nc3ccccc3s1)C2=O [7-104] | Not specific |  | 25 min | 17% | No binding | 
23 | O=C1/C(=N\Nc2nc3ccccc3s2)Cc2cc(C3CC3)ccc21 [7-105] | Not specific |  | > 60 min | 75% | No binding | 
24 | O=C1/C(=N\Nc2nc3ccccc3s2)Cc2cccc(C(F)(F)F)c21 [7-106] | Specific to 42D cells |  | 46 min | 38% | Positive binding | ~2 µM
25 | O=C1/C(=N\Nc2nc3ccccc3s2)Cc2ccc(C(F)(F)F)cc21 [7-107] | Low potency |  | > 60 min | 82% |  | 
26 | CCN(CC)c1ccc2c(c1)C(=O)/C(=N\Nc1nc3ccccc3s1)C2 [7-109] | Not specific |  | 13 min | 3% | Positive binding | 
27 | COC(=O)c1ccc2c(c1)C(=O)/C(=N\Nc1nc3ccccc3s1)C2 [7-110] | No activity |  | 32 min | 25% | No binding | 
28 | COC(=O)c1ccc2nc(N/N=C3/Cc4ccccc4C3=O)sc2c1 [7-111] | No activity |  | 15 min | 6% | No binding | 
29 | CNC(=O)c1ccc2c(c1)C/C(=N/Nc1nc3ccccc3s1)C2=O [7-117] | Not specific |  |  |  | No binding | 
30 | CNC(=O)c1ccc2c(c1)C(=O)/C(=N\Nc1nc3ccccc3s1)C2 [7-118] | very low activity |  |  |  | No binding | 
